According to patent US20060281806A1, “Treatment and inhibition of disease conditions using flexible heteroarotinoids” (priority 2005, published 2006):
Entries after “also recorded” stand apart in the source; their conditions may differ.

Tests used:
[1] = test system: SiHa human cervical cell line; test: In vitro cytotoxicity (SRB growth inhibition) assay, SiHa; assay type: cell-based; set-up: dose or concentration left out as unconfirmed; settings: 72 h
Method: (§1) The SHetA2, SHetA3, SHetA4, SHet50 and 9-cis-RA compounds were evaluated in 4 cervical carcinoma cell lines. The SiHa, CC-1 and C33a human cervical cell lines were maintained in Minimal Essential Media (MEM) containing Earle's salts and L-glutamine supplemented with nonessential amino acids, 1% sodium pyruvate, 10% fetal bovine serum (FBS) and antibiotic/antimycotic. The HT-3 cervical carcinoma cell line was cultured in McCoy's 5a medium supplemented with 10% FBS and antibiotic/antimycotic. Cells were inoculated into 96 well microtiter plates at densities of 1000 cells/well and incubated for 24 h prior to addition of drugs. Drugs were dissolved in dimethyl sulfoxide (DMSO) and diluted in complete medium, prior to addition to triplicate culture wells to achieve final concentrations of […]. Following drug addition, the plates were incubated for 72 h. The assay was terminated by the addition of cold TCA and the cells were stained with 0.4% sulforhodamine B (SRB) in 1% acetic acid. Bound stain was subsequently solubilized with 10 mM trizma base, and the absorbance was read on an automated plate reader at a wavelength of 560 nm. Growth inhibition was determined by dividing the average Optical Density (OD) of the triplicated treated cultures by the average OD of the triplicate control cultures treated with DMSO solvent only. This ratio was converted into a percentage by multiplying by 100. The potency (concentration required to induce half of the maximal activity—GI50) were derived from dose-response graphs generated with results from 3 to 5 individual experiments using GraphPad Software.

[2] = test system: CC-1 human cervical cell line; test: In vitro cytotoxicity (SRB growth inhibition) assay, CC-1; assay type: cell-based; set-up: dose or concentration left out as unconfirmed; settings: 72 h
Method: as §1

[3] = test system: C33a human cervical cell line; test: In vitro cytotoxicity (SRB growth inhibition) assay, C33a; assay type: cell-based; set-up: dose or concentration left out as unconfirmed; settings: 72 h
Method: as §1

[4] = test system: HT-3 cervical carcinoma cell line; test: In vitro cytotoxicity (SRB growth inhibition) assay, HT-3; assay type: cell-based, human; set-up: dose or concentration left out as unconfirmed; settings: 72 h
Method: as §1

Raldh2 −/− embryos = test: Rescue of Raldh2 −/− embryos and teratogenesis; assay type: in vivo, mouse; settings: for No. of −/− unrescued / Teratogenesis (no. of embryos) / No. of −/− rescued: E10.25 embryos
Method: Dosages varied from 0.025 to 25 mg/kg.

[5] = test system: ovarian carcinoma organotypic cultures; test: Organotypic culture model of ovarian tumors; assay type: cell-based, human; settings: 1 μM retinoid in media; 3, 7 or 14 days
Method: FIG. 17. Retinoid effects on ovarian carcinoma organotypic cultures. Organotypic cultures of OVCAR-3 (A, B, E, F, I and J), Caov-3 (C and G), SK-OV-3 (D and H), and O2 (K and L) were grown in the absence (−, top row and K) or presence (+, middle row and I, J and L) of retinoid HetA4 at a concentration of 1 μM in the media. All sections were stained with H&E except for I, which was stained with PAS to detect glycoproteins and glandular differentiantion, and J, which was stained with the TUNEL assay to detect apoptosis. All magnifications are 40×.
To test our hypotheses, we evaluated the effects of clinically achievable concentrations of 4-HPR and Flex-Hets on growth, differentiation and apoptosis in ovarian tissue. A series of compounds with a variety of receptor activation profiles were evaluated. In order to evaluate therapeutic effects, we developed an organotypic culture model of ovarian tumors by growing established cell lines and primary cultures inside collagen gels. Monolayer cultures of cells are not accurate representations of in vivo tissue because they lack the types of interactions that cells have with other cells and with the extracellular matrix in vivo. These interactions are known to influence gene expression and thus the constitution and behavior of cells. In our organotypic model, the growth of tumor cells inside the collagen allows a representation of tumors that have invaded stromal tissue. In the presence of fibroblasts, established cell lines and primary cultures of ovarian cancer formed colonies inside the collagen, while normal or benign ovarian epithelial cells remained as single cells inside the collagen. Human ovarian cancer cell lines (OVCAR-3, Caov-3, SK-OV-3, A2780, UCI 101) and primary human cultures (borderline ovarian tumor (O1), serous papillary tumor (O2), benign ovarian cyst (O3)) were cultured inside and on top of a collagen gel seeded with 3T3 fibroblasts for one week. After further incubation in the presence or absence of 1 μM retinoid (media concentration) for 3, 7 or 14 days, cultures were fixed and sectioned for immunohistochemical analysis.

[6] = test system: dorsal skin of female Skh hairless mice; test: Topical irritancy; assay type: in vivo; settings: topical on dorsal skin for 4 days; 2-log concentration dose range
Method: Female Skh hairless mice, 6-8 weeks old, were treated topically on the dorsal skin for 4 days over a 2-log concentration dose range with various compounds. Retinoic acid receptor-Hets were evaluated in A, while retinoic acid receptor-independent Flex-Hets were evaluated in B. Daily flaking and abrasion scores were combined to calculate a single cutaneous toxicity score for each mouse. Each treatment group consisted of 4 mice, and group averages were used to plot cutaneous toxicity against doses of the compounds.
Topical irritancy was evaluated according to published procedures (29). Briefly, female Skh hairless mice, 6-8 weeks old, were treated topically on the dorsal skin for 4 days over a 2-log concentration dose range with various compounds. Daily flaking and abrasion scores were combined to calculate a single cutaneous toxicity score for each mouse. Each treatment group consists of 4 mice, and group averages are used to plot cutaneous toxicity against dose of the retinoid compound.

OVCAR-3 xenograft tumors = test: OVCAR-3 xenograft tumor animal model, tumor growth; assay type: in vivo, mouse; settings: 10 mg/kg/day by gavage, 5 days/week, 4 weeks; t-test on day 29
Method: Groups of 5 mice bearing OVCAR-3 xenografted tumors were gavaged daily with the indicated drugs in sesame oil (▪ closed square) or with sesame oil alone (∘ open circle). Tumor volumes were measured in 3 dimensions with calipers weekly. Each data point represents the average and standard error of the tumor volumes on the indicated treatment day relative to the tumor volume on day zero. Nu/nu mice were injected subcutaneously with one million OVCAR-3 cells and arbitrarily divided into five groups of six mice each. After three weeks of tumor growth, the animals were gavaged with sesame oil, 10 mg/kg/day 4-HPR, or the indicated Het five times per week for four weeks and the tumors were measured once per week. The tumor sizes were averaged and divided by the average size for each group on the day that treatment was initiated (day 0).
The OVCAR-3 cultures were maintained in RPMI media supplemented with 10% fetal bovine serum. All animal experimentation described in this manuscript was conducted in accord with accepted standards of humane animal care. Twenty-five female NU/NU CD-1 female mice (Charles Rivers Laboratories) were housed in a laminar flow room under sterile conditions at 83-85° F. The mice were quarantined for one week prior to the beginning of the study and were allowed access to autoclaved food (Purina 5001 mouse/rat sterilizable diet, St. Louis, Mo.) and water ad libitum. OVCAR-3 cells in log phase growth were harvested by trypsinization, resuspended in RPMI culture medium, and centrifuged at 3,000 rpm for 10 min. The pellets were resuspended in RPMI culture medium at a concentration of 7×10^6 cells/ml before implantation into mice. Animals were injected with 3.5×10^6 cells into the right scapular region with a 24-gauge needle/1 cc tuberculin syringe. Twenty-four hours after tumor implantation, animals were randomized into 5 groups of 5 animals each.
The Hets SHet50, SHetA2 and SHetA4 were synthesized and their receptor specificity determined as previously described (17,19). The 4-HPR compound was a gift from R.W. Johnson Pharmaceutical Research Institute, Raritan, N.J. All retinoids were dissolved in super refined sesame oil (Croda, Inc., Parsippany, N.J.) and stored at −80° C. Since the retinoids are light sensitive, all manipulations involving retinoids were performed under subdued lighting. […] Tumors were measured with calipers weekly, and tumor volumes were calculated using the formula: volume=length×width×height. Tumor growth was determined by the dividing the volume of the tumor at each weekly measurement by the volume on the first day of treatment. Animal weights and clinical signs of overall health status and cutaneous toxicities were recorded weekly.

[7] = Alanine aminotransferase (ALT) activity in plasma of mice; assay type: in vivo, mouse; settings: end of treatment, 10 mg/kg/day by gavage
Method: At the end of the treatment period, blood was drawn from each animal. Plasma was separated by centrifugation and stored at −70° C. The activity of ALT was determined in aliquots of plasma by standard spectrophotometric enzymatic techniques which are based on the reduction of pyruvate by lactate dehydrogenase (28). The method measures NADH disappearance with time of incubation at 37° C. The activities are expressed as mm/L/min. Two different amounts of plasma were used in each assay to assure measurement of the maximum rate.

[8] = dose 2.5 mg/kg oral to pregnant mice
[9] = dose 10 mg/kg oral to pregnant mice
[10] = dose 1.0 mg/kg oral to pregnant mice
[11] = dose 25 mg/kg oral to pregnant mice
[12] = dose 0.025 mg/kg oral to pregnant mice
[13] = dose 0.25 mg/kg oral to pregnant mice
[14] = dose 0.5 mg/kg oral to pregnant mice

## CC1=C(/C=C/C(C)=C\C=C\C(C)=C\C(=O)O)C(C)(C)CCC1 [9-cis-RA, 9-cis-retinoic acid]
[1]
  Efficacy: percent growth inhibition relative to the untreated control: 24%
[2]
  Efficacy: percent growth inhibition relative to the untreated control: 28%
[3]
  Efficacy: percent growth inhibition relative to the untreated control: 45%
[4]
  Efficacy: percent growth inhibition relative to the untreated control: 47%
Raldh2 −/− embryos; 2.5 mg/kg to pregnant mothers
  rescue of Raldh2 −/− embryos (phenotype): partial rescue
Raldh2 −/− embryos; [8]
  No. of −/− unrescued: 8
  Teratogenesis (no. of embryos): 0
Raldh2 −/− embryos; [9]
  No. of −/− rescued: 6
  No. of −/− unrescued: 1
  Teratogenesis (no. of embryos): 0
[5]
  induction of apoptosis (TUNEL) in organotypic cultures: Apoptosis was induced

## CC1=C(/C=C/C(C)=C/C=C/C(C)=C/C(=O)O)C(C)(C)CCC1 [All-trans-RA]
Raldh2 −/− embryos; [10]
  No. of −/− rescued: 0
  No. of −/− unrescued: 7
  Teratogenesis (no. of embryos): 0
Raldh2 −/− embryos; [8]
  No. of −/− rescued: 13
  No. of −/− unrescued: 1
  Teratogenesis (no. of embryos): 0

## CCOC(=O)c1ccc(OC(=O)c2ccc3c(c2)C(C)(C)CCN3C(C)C)cc1 [NHet17]
[6]
  topical irritancy (cutaneous toxicity score): induced topical irritancy scores in a dose-responsive manner

## CC1(C)CCOc2ccc(C(=O)Oc3ccc(C=NNC(N)=S)cc3)cc21 [OHet72]
[6]
  topical irritancy (cutaneous toxicity score): did not induce topical irritancy
Raldh2 −/− embryos; 2.5 mg/kg to pregnant mothers
  rescue of Raldh2 −/− embryos (phenotype): no rescue
Raldh2 −/− embryos; 10 or 25 mg/kg to pregnant mothers
  rescue of Raldh2 −/− embryos (phenotype): no rescue
Raldh2 −/− embryos; any dosage (2.5, 10, 25 mg/kg)
  teratogenesis in litters: no teratogenesis was observed
Raldh2 −/− embryos; [8]
  No. of −/− rescued: 0
  No. of −/− unrescued: 4
  Teratogenesis (no. of embryos): 0
Raldh2 −/− embryos; [9]
  No. of −/− rescued: 0
  No. of −/− unrescued: 3
  Teratogenesis (no. of embryos): 0
Raldh2 −/− embryos; [11]
  No. of −/− rescued: 0
  No. of −/− unrescued: 5
  Teratogenesis (no. of embryos): 0

## COC(=O)c1ccc(C(=O)Nc2ccc3c(c2)C(C)(C)CC(C)(C)S3)cc1 [SHet50, reference compound]
[1]
  Efficacy: percent growth inhibition relative to the untreated control: 35%
[2]
  Efficacy: percent growth inhibition relative to the untreated control: 15%
[3]
  Efficacy: percent growth inhibition relative to the untreated control: 67%
[4]
  Efficacy: percent growth inhibition relative to the untreated control: 47%
OVCAR-3 xenograft tumors
  growth of xenograft tumors versus sesame oil control: significantly inhibited the growth; also recorded: significantly less
[7]
  ALT Activity: 65.5 ± 46.3 mm/liter/min
[5]
  induction of apoptosis (TUNEL) in organotypic cultures: Apoptosis was induced

## CC(C=CC=C(C)c1ccc2c(c1)C(C)(C)CS2)=CC(=O)O [SHet65]
[6]
  topical irritancy (cutaneous toxicity score): induced topical irritancy scores in a dose-responsive manner

## CC(Cc1ccc(C(=O)O)cc1)c1ccc2c(c1)C(C)(C)CS2 (stereo not drawn) [SHet100]
Raldh2 −/− embryos; 0.25 mg/kg to pregnant mothers
  rescue of Raldh2 −/− embryos (phenotype): partial rescue
Raldh2 −/− embryos; 0.5 mg/kg to pregnant mothers
  rescue of Raldh2 −/− embryos (phenotype): typical rescue phenotype
Raldh2 −/− embryos; 2.5 mg/kg to pregnant mothers
  teratogenesis in litter: teratogenic for all embryos in a litter
Raldh2 −/− embryos; [12]
  No. of −/− rescued: 0
  No. of −/− unrescued: 2
  Teratogenesis (no. of embryos): 0
Raldh2 −/− embryos; [13]
  No. of −/− unrescued: 0
  Teratogenesis (no. of embryos): 0
Raldh2 −/− embryos; [14]
  No. of −/− rescued: 6
  No. of −/− unrescued: 1
  Teratogenesis (no. of embryos): 0
Raldh2 −/− embryos; [8]
  Teratogenesis (no. of embryos): 11
